Calls of active or inactive are those of the source. How the calls were made is not given here.

This data set deals with GENE-TOX genotoxicity assays, various organisms and cells. Description: GENE-TOX mutagenicity studies. The note with it: for call: Assay Type: In vivo carcinogenicity studies.
[1] abbreviates: Species/Cell Type: Salmonella typhimurium (one or more of the five standard strains: TA98, TA100, TA1535, TA1537, and TA1538), Assay Type: Histidine reverse gene mutation, Ames assay, Assay Code: SALT, Evaluation Type: Evaluation A (Pre-1980).
The mark [2] stands for this setting: Species/Cell Type: Drosophila melanogaster, Assay Type: Aneuploidy, whole sex chromosome loss, chromosome aberrations, Assay Code: DAC-M, Evaluation Type: Evaluation A (Pre-1980).
The mark [3] stands for this setting: Species/Cell Type: Chinese hamster lung (V79) cells, Assay Type: Forward gene mutation at the HPRT or ouabain locus, Assay Code: V79+, Evaluation Type: Evaluation A (Pre-1980).
[4] abbreviates: Species/Cell Type: Nonhuman, Assay Code: CCG+L, Evaluation Type: Evaluation A (Pre-1980).
[5] abbreviates: Species/Cell Type: Nonhuman, Assay Type: Sister-chromatid exchange (SCE) in vitro, Assay Code: SC2+D, Dose Response: With dose response, Evaluation Type: Evaluation B (Post-1980).
Setting [6] is: Species/Cell Type: Salmonella typhimurium (one or more of the five standard strains: TA98, TA100, TA1535, TA1537, and TA1538), Assay Type: Histidine reverse gene mutation, Ames assay, Assay Code: SAL+, Evaluation Type: Evaluation A (Pre-1980).

For `CCN(CCCl)CCCNc1c2ccccc2nc2ccccc12`, for the setting “Species/Cell Type: Chinese hamster ovary (CHO) cells, Assay Type: Forward gene mutation at the HPRT locus, Assay Code: CHO+, Evaluation Type: Evaluation B (Post-1980)”, the mutagenic call was “active; positive”. As to `OCC(Cl)(Cl)Cl`, under setting [1], the mutagenic call was “no conclusion”.

`C1COCCN1`: the mutagenic call (Species/Cell Type: Salmonella typhimurium, Assay Type: Forward and reverse gene mutation, host-mediated assay, Assay Code: HMA+, Evaluation Type: Evaluation A (Pre-1980)) was “active; positive”. `O=C1c2ccccc2-c2ccccc21`: the mutagenic call (Species/Cell Type: Escherichia coli polA (W3119 vs P3478), Assay Type: Rec-assay, DNA effects (bacterial DNA repair), Assay Code: RE1T, Evaluation Type: Evaluation A (Pre-1980)) was “no conclusion”.

For the compound `CSCC[C@H](N)C(=O)O`, the mutagenic call (Species/Cell Type: Mammalian polychromatic erythrocytes, Assay Type: Micronucleus test, chromosome aberrations, Assay Code: MNTT, Evaluation Type: Evaluation A (Pre-1980)) is listed as “no conclusion”; the mutagenic call (Species/Cell Type: Mouse, Sex: Male, Assay Type: Sperm morphology, Assay Code: SPI-, Evaluation Type: Evaluation A (Pre-1980)) is “inactive; negative”; the mutagenic call (Species/Cell Type: Nonhuman, Assay Type: Sister-chromatid exchange (SCE) in vitro, Assay Code: SC2T, Evaluation Type: Evaluation B (Post-1980)) is reported as “no conclusion”.

Consider `C1=CC2C3C=CC(C3)C2C1` (stereo not given), for which the mutagenic call is, setting by setting: (Species/Cell Type: Saccharomyces cerevisiae, Assay Type: Mitotic recombination or gene conversion, Assay Code: YEH-, Evaluation Type: Evaluation A (Pre-1980)) “inactive; negative”; (Species/Cell Type: Salmonella typhimurium (one or more of the five standard strains: TA98, TA100, TA1535, TA1537, and TA1538), Assay Type: Histidine reverse gene mutation, Ames assay, Assay Code: SAL-, Evaluation Type: Evaluation A (Pre-1980)) “inactive; negative”. Turning to `Nc1ncnc2c1ncn2[C@@H]1O[C@H](COP(=O)(O)OP(=O)(O)OP(=O)(O)O)[C@@H](O)[C@H]1O`, the mutagenic call under setting [2] was “inactive; negative”.

As for `CC(=O)OC[C@H]1O[C@@H](Oc2cccc3c2C(=O)c2c(O)cccc2C3=O)[C@H](OC(C)=O)[C@@H](OC(C)=O)[C@@H]1OC(C)=O`, under “Species/Cell Type: Salmonella typhimurium (one or more of the five standard strains: TA98, TA100, TA1535, TA1537, and TA1538), Assay Type: Histidine reverse gene mutation, Ames assay, Assay Code: SAL+*, Activation: With metabolic activation, Evaluation Type: Evaluation A (Pre-1980)”, the mutagenic call is “active; positive”. As to `[CH3][Hg][CH3]`, the mutagenic call runs as follows: (Species/Cell Type: Mammalian oocytes or early embryo, Assay Type: Chromosome aberrations in vivo, Assay Code: CYO-, Evaluation Type: Evaluation A (Pre-1980)) “inactive; negative”; (Species/Cell Type: Rodents, Sex: Male, Assay Type: Dominant lethal test, Assay Code: DLTT, Evaluation Type: Evaluation A (Pre-1980)) “no conclusion”. As to `CC1C(C)N(N=O)C(C)C(C)N1N=O` (stereo not given), under setting [1], the mutagenic call was “no conclusion”. `Cc1ccc2oc(=O)ccc2c1`: the mutagenic call reads like this: (Species/Cell Type: Allium cepa, Assay Type: Chromosome aberrations, Assay Code: ALC+D, Dose Response: With dose response, Evaluation Type: Evaluation A (Pre-1980)) “active; positive”; (Species/Cell Type: Nonhuman, Assay Type: Chromosome aberrations in vitro, Assay Code: CY&+, Evaluation Type: Evaluation A (Pre-1980)) “active; positive”. `CCC1(c2ccccc2)CCC(=O)NC1=O` (stereo not given): the mutagenic call (Species/Cell Type: Drosophila melanogaster, Assay Type: Aneuploidy, sex chromosome gain, chromosome aberrations, Assay Code: DAG-M, Evaluation Type: Evaluation A (Pre-1980)) was “inactive; negative” and the mutagenic call under setting [2] was “inactive; negative”.

In the case of `N#CCC(=O)N/N=C/c1c[n+]([O-])c2ccccc2[n+]1[O-]`, the mutagenic call (Species/Cell Type: Mammalian polychromatic erythrocytes, Assay Type: Micronucleus test, chromosome aberrations, Assay Code: MNT+, Evaluation Type: Evaluation B (Post-1980)) is “active; positive”. `CN1CCN(CCCN2c3ccccc3Sc3ccccc32)CC1`: the mutagenic call is on record as “no conclusion” (Species/Cell Type: Human lymphocytes, Assay Type: Sister-chromatid exchange (SCE) in vitro, Assay Code: SCLT, Evaluation Type: Evaluation B (Post-1980)) and “no conclusion” (Species/Cell Type: Human, Assay Type: Sister-chromatid exchange (SCE) in vitro, Assay Code: SC1T, Evaluation Type: Evaluation B (Post-1980)). In the case of `COc1ccc2c(c1)CCC(c1ccccc1)=C2c1ccc(OCCN2CCCC2)cc1`, the mutagenic call (Species/Cell Type: Rabbit, Sex: Male, Assay Type: Sperm morphology, Assay Code: SPR+, Evaluation Type: Evaluation A (Pre-1980)) was “active; positive”. `CC(=O)OC[C@H]1OC(OC(C)=O)[C@H](NC(=O)N(C)N=O)[C@@H](OC(C)=O)[C@@H]1OC(C)=O` (stereo not given in full): the mutagenic call under setting [3] was “active; positive”.

Take `O=C=Nc1ccc(Nc2ccc([N+](=O)[O-])cc2)cc1`: under setting [1], the mutagenic call is given as “no conclusion”.

For the compound `Cc1c2ccccc2c(CO)c2c1ccc1ccccc12`, under setting [3], the mutagenic call was “active; positive”. Further, the call under setting [4] is “active; positive”. With `CN(C)c1ccc(N=Nc2cccc(CCl)c2)cc1`, the mutagenic call (Species/Cell Type: Drosophila melanogaster, Assay Type: Sex-linked recessive lethal gene mutation, Assay Code: SRLT, Evaluation Type: Evaluation A (Pre-1980)) was “no conclusion”. `CNC(=O)ON=CC(C)(C)SC`: the mutagenic call is, setting by setting: (Species/Cell Type: Human lymphocytes, Assay Type: Sister-chromatid exchange (SCE) in vitro, Assay Code: SCL+D, Dose Response: With dose response, Evaluation Type: Evaluation B (Post-1980)) “active; positive”; (Species/Cell Type: Human, Assay Type: Sister-chromatid exchange (SCE) in vitro, Assay Code: SC1+D, Dose Response: With dose response, Evaluation Type: Evaluation B (Post-1980)) “active; positive”. Where the note is “Species/Cell Type: Nonhuman, Assay Code: CCG-, Evaluation Type: Evaluation A (Pre-1980)”, the call is “inactive; negative”. Regarding `Oc1c(Cl)cccc1Cl`, where the note is “Species/Cell Type: Allium cepa, Assay Type: Chromosome aberrations, Assay Code: ALC-, Evaluation Type: Evaluation A (Pre-1980)”, the mutagenic call is “inactive; negative”. Take `OCCS`: under setting [5], the mutagenic call was “active; positive”. For `Nc1ccc2c(c1)Cc1cc(N)ccc1-2`, the mutagenic call under setting [6] was “active; positive”. Regarding `CCC(=O)ONC(=O)c1ccc2ccccc2c1`, the mutagenic call under setting [5] is “active; positive”. As to `CCCCN(CCCC(=O)NCC(=O)O)N=O`, the mutagenic call under setting [1] is “no conclusion”.

In the case of `Cn1c(N)nc2c3cccnc3ccc21`, the mutagenic call was “no conclusion” (Species/Cell Type: Chinese hamster ovary (CHO) cells, Assay Type: Forward gene mutation at the HPRT locus, Assay Code: CHOT, Evaluation Type: Evaluation B (Post-1980)); “inactive; negative” (Species/Cell Type: Mammalian polychromatic erythrocytes, Assay Type: Micronucleus test, chromosome aberrations, Assay Code: MNT-, Evaluation Type: Evaluation B (Post-1980)); “active; positive” (Species/Cell Type: Nonhuman, Assay Type: Sister-chromatid exchange (SCE) in vitro, Assay Code: SC2+D*, Activation: With metabolic activation, Dose Response: With dose response, Evaluation Type: Evaluation B (Post-1980)); “active; positive” (Species/Cell Type: Nonhuman, Assay Type: Sister-chromatid exchange (SCE) in vivo, Assay Code: SC3+, Evaluation Type: Evaluation B (Post-1980)). With `CC1=CC(=C(c2ccc(N)cc2)c2ccc(N)cc2)C=CC1=N` (tested in a mixture with another compound), the mutagenic call (Species/Cell Type: Saccharomyces cerevisiae, Assay Type: Forward gene mutation, Assay Code: YEFT, Evaluation Type: Evaluation A (Pre-1980)) is given as “no conclusion”. Turning to `CCN(N=O)c1ccccc1`, the mutagenic call was “inactive; negative” (Species/Cell Type: Fischer rat embryo (RLV/1706) cells, Assay Type: Cell transformation, viral enhanced, Assay Code: CTR-, Evaluation Type: Evaluation A (Pre-1980)); “inactive; negative” (Species/Cell Type: Mouse (BALB/c-3T3) cells, Assay Type: Cell transformation, Assay Code: CTB-, Evaluation Type: Evaluation A (Pre-1980)); “active; positive” (Species/Cell Type: Syrian hamster embryo (SHE) cells, Assay Type: Cell transformation, clonal assay, Assay Code: CTC+, Evaluation Type: Evaluation A (Pre-1980)). For `Clc1ccc(COC(Cn2ccnc2)c2ccc(Cl)cc2Cl)cc1` (stereo not given), under “Species/Cell Type: Aspergillus nidulans, Assay Type: Aneuploidy, chromosome aberrations, Assay Code: ASN+, Evaluation Type: Evaluation A (Pre-1980)”, the mutagenic call was “active; positive”. In the case of `S=C=S`, the mutagenic call (Species/Cell Type: Human, Sex: Male, Assay Type: Sperm morphology, Assay Code: SPH+, Evaluation Type: Evaluation A (Pre-1980)) is “active; positive”. Take `ClC1CO1` (stereo not given): the mutagenic call is, setting by setting: under setting [3], “active; positive”; (Species/Cell Type: Saccharomyces cerevisiae, Assay Type: Mitotic recombination or gene conversion, Assay Code: YEC+, Evaluation Type: Evaluation A (Pre-1980)) “active; positive”; under setting [6], “active; positive”; (Species/Cell Type: Schizosaccharomyces pombe, Assay Type: Reverse gene mutation, Assay Code: YEZ+, Evaluation Type: Evaluation A (Pre-1980)) “active; positive”. For the same compound, the call under setting [4] was “active; positive”.

The values above are taken from PubChem BioAssay AID1259408 (Genetic Toxicology Data Bank (GENE-TOX), 2018).
